Paper PMC4113355, “Carbamoylating Activity Associated with the Activation of the Antitumor Agent Laromustine Inhibits Angiogenesis by Inducing ASK1-Dependent Endothelial Cell Death” (PLoS ONE, 2014)

Biological target: T1, Trx reductase-1 (TrxR1) (Rattus norvegicus, UniProt O89049)
T1 construct: gene Txnrd1
T1 sequence (O89049 1-499): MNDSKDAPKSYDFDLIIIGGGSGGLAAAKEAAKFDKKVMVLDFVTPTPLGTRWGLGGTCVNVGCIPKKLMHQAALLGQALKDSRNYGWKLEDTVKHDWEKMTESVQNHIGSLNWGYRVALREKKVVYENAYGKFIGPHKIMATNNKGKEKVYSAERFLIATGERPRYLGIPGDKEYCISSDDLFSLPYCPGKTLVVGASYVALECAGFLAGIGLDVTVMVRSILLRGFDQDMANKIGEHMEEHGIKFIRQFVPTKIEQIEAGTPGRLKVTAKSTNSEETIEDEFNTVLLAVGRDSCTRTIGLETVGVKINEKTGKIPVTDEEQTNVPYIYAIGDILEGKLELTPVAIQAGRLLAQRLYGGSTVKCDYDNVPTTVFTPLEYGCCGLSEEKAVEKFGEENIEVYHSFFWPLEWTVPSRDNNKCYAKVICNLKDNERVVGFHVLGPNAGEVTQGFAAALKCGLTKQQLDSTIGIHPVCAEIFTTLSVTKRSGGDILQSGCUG
Test: DTNB reduction assay with purified TrxR1, […] h pre-incubation with NADPH at pH […]

| SMILES | IC50 |
| --- | --- |
| CNC(=O)N(NS(C)(=O)=O)S(C)(=O)=O [101MDCE, 1,2-bis(methylsulfonyl)-1-[(methylamino)carbonyl]hydrazine] | 9.9 ± 3.1 µM |
| O=NN(CCCl)C(=O)NCCCl [BCNU, 1,3-bis(2-chloroethyl)-1-nitrosourea] | 5.4 ± 1.4 µM |
| CNC(=O)N(N(CCCl)S(C)(=O)=O)S(C)(=O)=O [Laromustine, 1,2-bis(methylsulfonyl)-1-(2-chloroethyl)-2-[(methylamino)carbonyl]hydrazine] | 5 ± 1.1 µM |
